Measured values published in ChEMBL document CHEMBL1909046, “DrugMatrix in vitro pharmacology data”.

Columns and labels:
[1] = DRUGMATRIX: GABAA, Muscimol, Central radioligand binding (ligand: [3H] Muscimol); type: cell membranes, Rattus norvegicus, Wistar, Brain, Membrane; settings: Not Active = under 50% inhibition at 10 µM
Cytochrome P450 2C9 = Cytochrome P450 2C9 (Homo sapiens, UniProt P11712); settings: bti-tn-5b1-4; also: in other assays of this panel Not Active means under 50% inhibition at 10 µM
[2] = target: C-C chemokine receptor type 2 (Homo sapiens, UniProt P41597); type: cell membranes, CHO-K1, Membrane; settings: cho-k1; also: in other assays of this panel Not Active means under 50% inhibition at 10 µM
[3] = target: T1, Alpha-1A adrenergic receptor (Rattus norvegicus, UniProt P43140); experiment: DRUGMATRIX: Alpha-1A adrenergic receptor radioligand binding (ligand: prazosin); type: cell membranes, Wistar, Submaxillary gland, Membrane; settings: Not Active = under 50% inhibition at 10 µM
T1 sequence (P43140 whole entry): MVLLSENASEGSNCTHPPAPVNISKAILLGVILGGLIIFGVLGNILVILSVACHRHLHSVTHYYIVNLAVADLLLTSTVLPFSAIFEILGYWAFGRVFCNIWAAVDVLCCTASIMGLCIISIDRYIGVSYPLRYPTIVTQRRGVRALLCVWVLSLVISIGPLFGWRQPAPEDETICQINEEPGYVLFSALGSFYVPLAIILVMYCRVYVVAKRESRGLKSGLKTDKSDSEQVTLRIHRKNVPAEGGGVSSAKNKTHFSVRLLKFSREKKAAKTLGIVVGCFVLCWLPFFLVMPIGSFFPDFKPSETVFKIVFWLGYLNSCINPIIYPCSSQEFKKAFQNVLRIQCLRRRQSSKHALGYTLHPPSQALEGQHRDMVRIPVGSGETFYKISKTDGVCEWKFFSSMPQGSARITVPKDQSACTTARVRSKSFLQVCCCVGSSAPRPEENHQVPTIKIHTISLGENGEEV

Adenosine receptor A2a = Adenosine receptor A2a (Homo sapiens, UniProt P29274); experiment: DRUGMATRIX: Adenosine A2A radioligand binding (ligand: […]); type: cell membranes, HEK293, Membrane; settings: hek293; Not Active = under 50% inhibition at 10 µM
[4] = target: Matrix metalloproteinase-9 (Homo sapiens, UniProt P14780); experiment: biochemical; type: cell-based;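 also: inhibition of isolated MMP-9 enzyme activity toward a synthetic peptide substrate, from the DrugMatrix protease screening panel; in other assays of this panel Not Active means under 50% inhibition at 10 µM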
Matrix metalloproteinase-9, sequence (P14780 whole entry): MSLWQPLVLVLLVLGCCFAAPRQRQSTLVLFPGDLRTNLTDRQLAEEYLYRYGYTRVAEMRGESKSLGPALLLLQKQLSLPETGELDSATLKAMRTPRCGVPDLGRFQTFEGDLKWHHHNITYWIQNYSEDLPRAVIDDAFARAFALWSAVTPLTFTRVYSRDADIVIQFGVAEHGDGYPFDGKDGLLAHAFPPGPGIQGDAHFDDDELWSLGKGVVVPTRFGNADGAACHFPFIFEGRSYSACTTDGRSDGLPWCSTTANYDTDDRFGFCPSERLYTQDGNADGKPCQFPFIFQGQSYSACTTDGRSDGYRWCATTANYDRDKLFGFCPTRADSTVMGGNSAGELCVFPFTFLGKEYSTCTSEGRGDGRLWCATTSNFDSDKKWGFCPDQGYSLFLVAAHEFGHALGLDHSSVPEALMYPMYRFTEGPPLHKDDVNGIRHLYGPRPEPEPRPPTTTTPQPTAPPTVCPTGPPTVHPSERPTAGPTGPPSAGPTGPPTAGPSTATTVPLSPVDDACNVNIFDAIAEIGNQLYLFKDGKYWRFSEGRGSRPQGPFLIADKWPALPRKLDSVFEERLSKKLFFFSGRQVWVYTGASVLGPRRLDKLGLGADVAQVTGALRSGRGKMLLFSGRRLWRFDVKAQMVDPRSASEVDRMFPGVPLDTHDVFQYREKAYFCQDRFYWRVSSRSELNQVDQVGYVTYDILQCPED

Cytochrome P450 2C9, sequence (P11712 whole entry): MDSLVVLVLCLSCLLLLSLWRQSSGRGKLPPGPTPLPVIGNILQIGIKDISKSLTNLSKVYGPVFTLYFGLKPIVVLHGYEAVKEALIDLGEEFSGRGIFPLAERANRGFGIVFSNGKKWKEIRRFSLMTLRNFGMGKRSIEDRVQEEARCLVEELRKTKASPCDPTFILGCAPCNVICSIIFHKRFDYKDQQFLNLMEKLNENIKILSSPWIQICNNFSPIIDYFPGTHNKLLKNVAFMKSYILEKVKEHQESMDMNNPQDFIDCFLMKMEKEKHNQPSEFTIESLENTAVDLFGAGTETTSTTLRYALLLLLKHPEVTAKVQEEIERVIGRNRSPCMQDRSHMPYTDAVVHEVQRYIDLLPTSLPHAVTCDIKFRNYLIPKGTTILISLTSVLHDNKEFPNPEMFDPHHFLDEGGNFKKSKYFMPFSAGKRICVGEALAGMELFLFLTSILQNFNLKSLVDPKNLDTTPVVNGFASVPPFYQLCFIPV
C-C chemokine receptor type 2, sequence (P41597 whole entry): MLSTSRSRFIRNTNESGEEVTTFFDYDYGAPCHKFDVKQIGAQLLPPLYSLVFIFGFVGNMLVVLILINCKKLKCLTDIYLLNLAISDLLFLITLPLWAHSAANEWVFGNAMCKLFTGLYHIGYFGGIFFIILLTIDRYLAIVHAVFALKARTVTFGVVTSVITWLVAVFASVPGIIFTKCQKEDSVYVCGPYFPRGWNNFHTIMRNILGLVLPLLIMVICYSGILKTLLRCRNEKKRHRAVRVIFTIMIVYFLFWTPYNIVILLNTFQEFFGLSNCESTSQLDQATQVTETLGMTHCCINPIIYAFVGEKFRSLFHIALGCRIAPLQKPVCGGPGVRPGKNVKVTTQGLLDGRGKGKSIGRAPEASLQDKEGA
Adenosine receptor A2a, sequence (P29274 whole entry): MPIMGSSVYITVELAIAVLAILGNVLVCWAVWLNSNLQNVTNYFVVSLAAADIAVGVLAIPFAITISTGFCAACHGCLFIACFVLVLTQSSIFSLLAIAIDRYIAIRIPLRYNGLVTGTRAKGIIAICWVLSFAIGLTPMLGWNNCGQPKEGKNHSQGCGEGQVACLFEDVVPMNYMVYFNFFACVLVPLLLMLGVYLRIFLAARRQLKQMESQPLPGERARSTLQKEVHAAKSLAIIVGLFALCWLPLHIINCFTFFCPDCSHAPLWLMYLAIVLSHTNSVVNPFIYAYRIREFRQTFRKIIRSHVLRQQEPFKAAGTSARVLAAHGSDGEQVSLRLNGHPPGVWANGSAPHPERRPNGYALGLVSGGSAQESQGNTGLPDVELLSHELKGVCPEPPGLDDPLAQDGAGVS

C[C@H]1O[C@@H](O[C@H]2[C@@H](O)C[C@H](O[C@H]3[C@@H](O)C[C@H](O[C@H]4CC[C@@]5(C)[C@H](CC[C@@H]6[C@@H]5CC[C@]5(C)[C@@H](C7=CC(=O)OC7)CC[C@]65O)C4)O[C@@H]3C)O[C@@H]2C)C[C@H](O)[C@@H]1O [DIGITOXIN]
Not Active: IC50 [1] | Ki [1] | IC50 (Cytochrome P450 2C9) | Ki (Cytochrome P450 2C9) | IC50 [2] | IC50 [3] | IC50 (Adenosine receptor A2a) | IC50 [4]

CCN1CC(CCN2CCOCC2)C(c2ccccc2)(c2ccccc2)C1=O (stereo not drawn) [DOXAPRAM]
Not Active: IC50 [1] | Ki [1] | IC50 (Cytochrome P450 2C9) | Ki (Cytochrome P450 2C9) | IC50 [2] | IC50 [3] | IC50 (Adenosine receptor A2a) | IC50 [4]

Cn1c(=O)c2c(ncn2CC2OCCO2)n(C)c1=O [DOXOFYLLINE]
Not Active: IC50 [1] | Ki [1] | IC50 (Cytochrome P450 2C9) | Ki (Cytochrome P450 2C9) | IC50 [2] | IC50 [3] | IC50 (Adenosine receptor A2a) | IC50 [4]

COc1cccc2c1C(=O)c1c(O)c3c(c(O)c1C2=O)C[C@@](O)(C(=O)CO)C[C@@H]3O[C@H]1C[C@H](N)[C@H](O)[C@H](C)O1 [DOXORUBICIN]
Not Active: IC50 [1] | Ki [1] | IC50 (Cytochrome P450 2C9) | Ki (Cytochrome P450 2C9) | IC50 [2] | IC50 [3] | IC50 (Adenosine receptor A2a) | IC50 [4]

COc1cccc2c1C(=O)c1c(O)c3c(c(O)c1C2=O)C[C@@](O)(C(=O)CO)C[C@@H]3O[C@H]1C[C@H](N)[C@@H](O)[C@H](C)O1 [EPIRUBICIN]
Not Active: IC50 [1] | Ki [1] | IC50 (Cytochrome P450 2C9) | Ki (Cytochrome P450 2C9) | IC50 [2] | IC50 [3] | IC50 (Adenosine receptor A2a) | IC50 [4]

C[C@]12CC[C@@H]3c4ccc(OC(=O)c5ccccc5)cc4CC[C@H]3[C@@H]1CC[C@@H]2O [ESTRADIOL BENZOATE]
Not Active: IC50 [1] | Ki [1] | IC50 (Cytochrome P450 2C9) | Ki (Cytochrome P450 2C9) | IC50 [2] | IC50 [3] | IC50 (Adenosine receptor A2a) | IC50 [4]

C[C@]12CC[C@@H]3c4ccc(O)cc4CC[C@H]3[C@@H]1CC[C@@H]2O [ESTRADIOL]
Not Active: IC50 [1] | Ki [1] | IC50 (Cytochrome P450 2C9) | Ki (Cytochrome P450 2C9) | IC50 [2] | IC50 [3] | IC50 (Adenosine receptor A2a) | IC50 [4]

CC[C@@H](CO)NCCN[C@@H](CC)CO [ETHAMBUTOL]
Not Active: IC50 [1] | Ki [1] | IC50 (Cytochrome P450 2C9) | Ki (Cytochrome P450 2C9) | IC50 [2] | IC50 [3] | IC50 (Adenosine receptor A2a) | IC50 [4]

CC1(C)O[C@@H]2C[C@H]3[C@@H]4C[C@H](F)C5=CC(=O)C=C[C@]5(C)[C@H]4[C@@H](O)C[C@]3(C)[C@]2(C(=O)CO)O1 [FLUNISOLIDE]
Not Active: IC50 [1] | Ki [1] | IC50 (Cytochrome P450 2C9) | Ki (Cytochrome P450 2C9) | IC50 [2] | IC50 [3] | IC50 (Adenosine receptor A2a) | IC50 [4]

CC1(C)O[C@@H]2C[C@H]3[C@@H]4C[C@H](F)C5=CC(=O)C=C[C@]5(C)[C@@]4(F)[C@@H](O)C[C@]3(C)[C@]2(C(=O)CO)O1 [FLUOCINOLONE ACETONIDE]
Not Active: IC50 [1] | Ki [1] | IC50 (Cytochrome P450 2C9) | Ki (Cytochrome P450 2C9) | IC50 [2] | IC50 [3] | IC50 (Adenosine receptor A2a) | IC50 [4]

CC1(C)O[C@@H]2C[C@H]3[C@@H]4C[C@H](F)C5=CC(=O)CC[C@]5(C)[C@H]4[C@@H](O)C[C@]3(C)[C@]2(C(=O)CO)O1 [FLURANDRENOLIDE]
Not Active: IC50 [1] | Ki [1] | IC50 (Cytochrome P450 2C9) | Ki (Cytochrome P450 2C9) | IC50 [2] | IC50 [3] | IC50 (Adenosine receptor A2a) | IC50 [4]

Cc1ccc(S(=O)(=O)NC(=O)NN2CC3CCCC3C2)cc1 (stereo not drawn) [GLICLAZIDE]
Not Active: IC50 [1] | Ki [1] | IC50 (Cytochrome P450 2C9) | Ki (Cytochrome P450 2C9) | IC50 [2] | IC50 [3] | IC50 (Adenosine receptor A2a) | IC50 [4]

CC(C)Cc1ccc(C(C)C(=O)O)cc1 (stereo not drawn) [IBUPROFEN]
Not Active: IC50 [1] | Ki [1] | IC50 (Cytochrome P450 2C9) | Ki (Cytochrome P450 2C9) | IC50 [2] | IC50 [3] | IC50 (Adenosine receptor A2a) | IC50 [4]

COc1ccc2c(c1)c(CC(=O)O)c(C)n2C(=O)c1ccc(Cl)cc1 [INDOMETHACIN]
Not Active: IC50 [1] | Ki [1] | IC50 (Cytochrome P450 2C9) | Ki (Cytochrome P450 2C9) | IC50 [2] | IC50 [3] | IC50 (Adenosine receptor A2a) | IC50 [4]

CCc1c2c(nc3ccc(OC(=O)N4CCC(N5CCCCC5)CC4)cc13)-c1cc3c(c(=O)n1C2)COC(=O)[C@]3(O)CC [IRINOTECAN]
Not Active: IC50 [1] | Ki [1] | IC50 (Cytochrome P450 2C9) | Ki (Cytochrome P450 2C9) | IC50 [2] | IC50 [3] | IC50 (Adenosine receptor A2a) | IC50 [4]

CC(C(=O)O)c1cccc(C(=O)c2ccccc2)c1 (stereo not drawn) [KETOPROFEN]
Not Active: IC50 [1] | Ki [1] | IC50 (Cytochrome P450 2C9) | Ki (Cytochrome P450 2C9) | IC50 [2] | IC50 [3] | IC50 (Adenosine receptor A2a) | IC50 [4]

Nc1ccn([C@@H]2CS[C@H](CO)O2)c(=O)n1 [LAMIVUDINE]
Not Active: IC50 [1] | Ki [1] | IC50 (Cytochrome P450 2C9) | Ki (Cytochrome P450 2C9) | IC50 [2] | IC50 [3] | IC50 (Adenosine receptor A2a) | IC50 [4]

O=S(=O)([O-])CCS.[Na+] [MESNA]
Not Active: IC50 [1] | Ki [1] | IC50 (Cytochrome P450 2C9) | Ki (Cytochrome P450 2C9) | IC50 [2] | IC50 [3] | IC50 (Adenosine receptor A2a) | IC50 [4]

C#C[C@]1(O)CC[C@H]2[C@@H]3CCc4cc(OC)ccc4[C@H]3CC[C@@]21C [MESTRANOL]
Not Active: IC50 [1] | Ki [1] | IC50 (Cytochrome P450 2C9) | Ki (Cytochrome P450 2C9) | IC50 [2] | IC50 [3] | IC50 (Adenosine receptor A2a) | IC50 [4]

CC(=O)Nc1cccc(O)c1 [METACETAMOL]
Not Active: IC50 [1] | Ki [1] | IC50 (Cytochrome P450 2C9) | Ki (Cytochrome P450 2C9) | IC50 [2] | IC50 [3] | IC50 (Adenosine receptor A2a) | IC50 [4]

Cc1ncc([N+](=O)[O-])n1CCO [METRONIDAZOLE]
Not Active: IC50 [1] | Ki [1] | IC50 (Cytochrome P450 2C9) | Ki (Cytochrome P450 2C9) | IC50 [2] | IC50 [3] | IC50 (Adenosine receptor A2a) | IC50 [4]
